The subject of data set [1] is BC-3-luc PEL cells xenograft. Briefly: PEL in vivo xenograft mouse model. Details: species or system NOD/SCID mice. As to conditions: 20 mg/kg intraperitoneally, 9 consecutive days. Here is the method: PEL in Vivo Xenograft Mouse Model Study: […] BC3NFRen-luc #3 were injected intraperitoneally into 4-6 week-old male NOD/SCID mice. […] The tumor burden or bioluminescence (photons/s/cm^2/steradian) was monitored by live imaging and weighing, with the sacrificial endpoint determined to be a net gain or loss of 10% body weight over a week.
We next tested its antitumor activity in vivo. We injected 10×10^6 BC-3-luc PEL cells into the peritoneal cavity of NOD-SCID mice and monitored tumor burden by bioluminescence imaging.

The next data set deals with BC-1 cells. Briefly: Live cell confocal microscopy cellular uptake. It counts as in vitro ADME. The protocol: Live Cell Confocal Microscopy and Analysis: BC1 PEL cells in the exponential phase were resuspended in RPMI 1640 media supplemented with 50 μg/ml gentamicin in the absence of serum and treated with a final concentration of 0.125% DMSO or 500 nM FITC-labeled peptide at 37° C., cold or in the presence of 10 mM sodium azide. Cells were then added to 35 mm glass bottom MatTek poly-lysine coated plates (p356c-0-10C) and immunofluorescence images were captured using LSM880 confocal miscroscope with Airyscan resolution detector, spectral detector and incubation. Images were processed using Fiji software (FIG. 14).
Inhibition of the vFLIP-NEMO complex formation in KSHV-infected PEL cells requires the inhibitor to be cell permeable. […] In order to probe cellular entry mechanism, we performed cellular uptake experiments at 4° C. as well as with sodium azide poisoning to reduce ATP-mediated active transport mechanisms without affecting overall cellular viablity (Patgiri et al., Nat. Chem. Biol. 7:585-7 (2011); which is hereby incorporated by reference in its entirety).

The nature of another data set: Serum stability assay. In kind it is in vitro ADME. The settings on record: 25% fetal bovine serum in RPMI, 60 μM peptide, read-out: initial peptide remaining intact. The protocol: Time points of 30 minutes, 1 hr, 2 hr, 8 hr, and 24 hrs were analyzed in triplicate. Each reaction was started upon addition of FBS to 60 μM peptide. Reactions were quenched at time points with addition of 100% EtOH, chilled on ice for 10 minutes, and pelleted at 12,000 RPM. Supernatant was injected onto an Agilent analytical HPLC equipped with an XTerra RP18 3.5 μm 2.1×150 mm column (Part No. 186000410) and visualized at 220 nm. Integration of peak areas was used to determine percent degradation of peptides. Mass of cleaved products were determined using Matrix assisted laser desorption ion time of flight (MALDI-TOF) spectroscopy.

A short description of data set [2]: Circular dichroism thermal denaturation. It counts as physicochemical. As to conditions: CD spectra between 5-95° C. An excerpt: (§1) Data plotted represent mean±s.e.m of three replicate experiments. TR-FRET signal was normalized to DMSO control and expressed as percent inhibition. […] Data shown represent mean±s.d. of two independent experiments performed in triplicate. Data was normalized to c. (FIG. 3C) The conformation of the coiled coil mimics was investigated by circular dichroism spectroscopy in aqueous buffer. The reported values represent mean±s.e.m of two independent experiments. […] The circular dichroism spectra were collected at regular intervals between 5-95° C. Data shown represent one experiment where scans were recorded five times over the temperature range. […] Peptide degradation was probed over 24 h by HPLC. […] Cells were visualized by fluorescence microscopy after 1 hour incubation. […] Hoechst stain was used to detect the nuclei. Representative live confocal images from at least three replicate experiments are shown.
Circular Dichroism Spectroscopy: CD spectra were recorded on a Jasco J-1500 Circular Dichroism Spectrophotometer equipped with a temperature controller using 1 mm length cells and a scan speed of 4 nm/min at 298K. The spectra were averaged over 4 scans with the background subtracted to the analogous experimental conditions. […] The concentrations of each peptide were determined by the UV absorption at 280 nm.
Background: Circular dichroism is widely used to follow secondary structure.

A short description of another data set: in vitro. As to conditions: human. The protocol: (§2) Cytotoxicity of these hits was assayed using CellTiter Glo viability assay.
Data set [3] concerns BC-3 PEL cell line. In words: CellTiter-Glo cell viability assay, BC-3. As to conditions: read-out: BC-3 LC50 (μM). Here is the method: Media was supplemented with 20% FBS 3 hours post-peptide treatment.
as §2
(Cellular ATP, detected with luciferase, serves as a proxy for viable cell number.)

The subject of another data set is full length NEMO. Briefly: Fluorescence polarization direct binding assay, specificity over NEMO. As to conditions: FITC-labeled peptide.
Source text: as §1
The polarization experiments were performed using a DTX 880 Multimode Detector (Beckman) at 25° C. with excitation and emission wavelengths of 485 and 525 nm, respectively. Each polarization experiment was performed in a 96-well round bottom plate (Greiner) in assay buffer: Tris glycerol pluronic acid. The binding affinity (KD) values reported for each peptide are from experiments performed in triplicate. […]
(In general: Polarisation of emitted light reports the rotation of a fluorescent probe.)

The target of data set [4] is T1, vFLIP/NEMO complex in vFLIP-FLAG doxycycline-inducible Namalwa cell line (Human herpesvirus 8 type P, UniProt F5HEZ4).
T1 construct: expressed in transfected cells; host or cells: Namalwa Burkitt lymphoma cells, lentivirally transduced (pLVX-TetOne-puro), doxycycline-induced
T1 sequence (F5HEZ4 whole entry, one chain of several): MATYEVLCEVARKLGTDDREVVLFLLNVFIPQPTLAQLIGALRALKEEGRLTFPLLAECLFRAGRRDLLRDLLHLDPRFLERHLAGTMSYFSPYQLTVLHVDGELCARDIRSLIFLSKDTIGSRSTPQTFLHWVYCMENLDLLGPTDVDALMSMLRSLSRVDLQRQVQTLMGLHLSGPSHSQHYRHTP
In words: Co-immunoprecipitation of vFLIP-FLAG and NEMO. It counts as cell-based. The settings on record: 24 hrs treatment, increasing concentrations. Here is the method: Co-Immunoprecipiation: FLAG-tagged WT vFLIP or a vFLIP NF-κB dead mutant (vFLIP^AAA(58-60)) inducible Namalwa Burkitt lymphoma cell lines were used. Expression of WT vFLIP or mutant vFLIP was attained by treating cells with 1 μg/mL doxcycline for 24 hrs. […] 4 hours post-treatment, media was supplemented with 20% FBS and treatment continued for another 24 hrs. Next day, uninduced Namalwa WT vFLIP cell line, treated Namalwa WT vFLIP expressing cell lines as well as Namalwa expressing mutant vFLIP and parental Namalwa cell lines were harvested, washed in PBS and lysed on ice for 30 minutes using CelLytic M lysis reagent (Sigma, cat. C2978) supplemented with protease inhibitor cocktail (calbiochem, cat 539134). Cells were spun down and some of supernatants was saved for input and the rest was immunoprecipitated overnight using anti-FLAG M2beads (Sigma, cat. A2220) that were pre-equilibrated with the same buffer. […]
Immunoblotting: For co-immunoprecipitation study, eluted protein lysates were separated using pre-casted 10% sodium dodecyl sulfate-polyacrylamide gel electrophoresis SDS-PAGE gel (Bio-rad). […] Secondary anti-HRP rabbit antibody was used at 1:5000 dilution (GE healthcare) and chemiluminescent signal was detected using enhanced chemiluminescence (ECL) substrate (thermo Fisher Scientific) and autoradiography. […]

Data set [5] deals with BC-3 PEL cell line. The settings on record: BC-3, KSHV+; read-out: PU-H71 LC50; cited from earlier work.
Another data set concerns BCBL-1 PEL cell line. The settings on record: BCBL-1, KSHV+; read-out: PU-H71 LC50; cited from earlier work.
The test system of data set [6] is PEL cell lines (BC-1, BC-3, BCBL-1). Briefly: CellTiter-Glo cytotoxicity in panel of PEL cell lines. In kind it is cell-based. As to conditions: FIG. 5A.
A further data set relates to BC-1 PEL cell line. The settings on record: BC-1, KSHV+/EBV+; read-out: PU-H71 LC50; cited from earlier work.
A further data set concerns BC-2 PEL cell line. The settings on record: BC-2, KSHV+/EBV+; read-out: PU-H71 LC50; cited from earlier work.
Data set [7] deals with Namalwa Burkitt lymphoma cell line. The settings on record: EBV+, read-out: PU-H71 LC50; cited from earlier work.
Data set [8] has the same test system. In words: CellTiter-Glo cell viability assay, Namalwa. It counts as cell-based.

Where two headings read alike, the source gives them in different places.

Broadly, the fraction remaining is what is left of the initial amount, in per cent. As to `CC[C@H](C)[C@H](NC(=O)[C@H](CC(C)C)NC(=O)[C@H](CCC(=O)O)NC(=O)[C@H](CC(=O)O)NC(=O)[C@@H](NC(=O)[C@H](CCCCn1cc(COCc2cn(CCCC[C@H](NC(=O)[C@H](CC(C)C)NC(=O)[C@H](CCCNC(=N)N)NC(=O)[C@H](CCCNC(=N)N)NC(=O)[C@@H](NC(=O)[C@H](CCC(=O)NC3CCCCC3)NC(=O)[C@H](CCC(=O)O)NC(=O)[C@H](Cc3c[nH]c4ccccc34)NC(=O)[C@H](CC(C)C)NC(=O)[C@H](CCC(N)=O)NC(=O)[C@H](CCCNC(=N)N)NC(=O)[C@@H](NC(=O)[C@H](Cc3c[nH]c4ccccc34)NC(=O)[C@H](CCC(=O)O)NC(C)=O)[C@@H](C)CC)[C@@H](C)CC)C(N)=O)nn2)nn1)NC(=O)[C@H](CCCNC(=N)N)NC(=O)[C@H](Cc1ccccc1)NC(=O)[C@H](CC(C)C)NC(=O)[C@H](CCCNC(=N)N)NC(=O)[C@H](Cc1c[nH]cn1)NC(=O)[C@@H](NC(=O)[C@H](CCC(=O)O)NC(C)=O)[C@@H](C)CC)[C@@H](C)CC)C(=O)N[C@@H](CCCNC(=N)N)C(N)=O` [CHD3^NEMO], the observed toxicity entry in data set [1] was “without any observed toxicity”. The “cellular uptake at cold temperatures and with sodium azide” value in the data set with BC-1 cells (4° C., 10 mM sodium azide) is given as “reduction in cellular uptake”. Besides, the amount remaining at 24 h, 60 μM in “Serum stability assay” is roughly 80%. Besides, the “conformational stability (helix percentage vs temperature)” value in data set [2] is recorded as “retain a significant proportion of helix percentage at high temperatures”.

On to `O=C(C1CCCN1c1ncccn1)N1CCc2c(Cl)cccc2C1` (stereo not drawn) [Compound 7], for which the figures for the CC50 in “in vitro” and with BC-3 PEL cell line [3] were 31.6 µM and 39.9 µM, respectively.

Take `Cc1cccc(-c2cccc(CNC(=O)NCCS(C)(=O)=O)c2)c1` [Compound 8]: the CC50 in the data set “in vitro” and in the data set on BC-3 PEL cell line [3] was greater than 100 µM throughout.

As for `Cc1cc(CNC(=O)NC2CCCC2)cc(C)c1O` [Compound 5], the CC50 in the data set “in vitro” and with BC-3 PEL cell line [3] was greater than 100 µM in each case.

Take `CCCCC(CC)CNC(=N)NC(=N)NCCCCCCNC(=N)NC(=N)NCC(CC)CCCC` (stereo not drawn) [Compound 9]: the CC50 in “in vitro” came to 3.8 µM; in the data set on BC-3 PEL cell line [3], 3.9 µM.

With `CC(=O)N1CCc2cc(C(=O)C(C)Oc3ccc(C#N)cc3Cl)ccc21` (stereo not drawn) [Compound 6], the CC50 in the data set “in vitro” was 69.7 µM; with BC-3 PEL cell line [3], 35.9 µM.

As for `CC[C@H](C)[C@H](NC(=O)[C@H](CC(C)C)NC(=O)[C@H](CCC(=O)O)NC(=O)[C@H](CC(=O)O)NC(=O)[C@@H](NC(=O)[C@H](CCCCn1cc(COCc2cn(CCCC[C@H](NC(=O)[C@H](CC(C)C)NC(=O)[C@H](CCCNC(=N)N)NC(=O)[C@H](CCCNC(=N)N)NC(=O)[C@@H](NC(=O)[C@H](CCC(=O)NC3CCCCC3)NC(=O)[C@H](CCC(=O)O)NC(=O)[C@H](Cc3c[nH]c4ccccc34)NC(=O)[C@H](CC(C)C)NC(=O)[C@H](CCC(N)=O)NC(=O)[C@H](CCCNC(=N)N)NC(=O)[C@@H](NC(=O)[C@H](Cc3c[nH]c4ccccc34)NC(=O)[C@H](CCC(=O)O)NC(=O)CCNC(=S)Nc3ccc4c(c3)C(=O)OC43c4ccc(O)cc4Oc4cc(O)ccc43)[C@@H](C)CC)[C@@H](C)CC)C(N)=O)nn2)nn1)NC(=O)[C@H](CCCNC(=N)N)NC(=O)[C@H](Cc1ccccc1)NC(=O)[C@H](CC(C)C)NC(=O)[C@H](CCCNC(=N)N)NC(=O)[C@H](Cc1c[nH]cn1)NC(=O)[C@@H](NC(=O)[C@H](CCC(=O)O)NC(C)=O)[C@@H](C)CC)[C@@H](C)CC)C(=O)N[C@@H](CCCNC(=N)N)C(N)=O` [FITC-CHD3^NEMO], in the data set with BC-1 cells (500 nM FITC-labeled peptide, 37° C.), the “time to enter BC-1 cells” value was no more than 30 min. In addition, in the data set on full length NEMO, the “binding to wild-type NEMO coiled coil” value is recorded as “failed to bind wild-type NEMO coiled coil”.

Take `CCOc1ccc2nc3cc(N)ccc3c(N)c2c1` [Compound 2]: the CC50 in the data set “in vitro” is 7.7 µM; with BC-3 PEL cell line [3], 12.2 µM.

As for `CN(Cc1ccc2cccnc2c1)S(=O)(=O)c1cccs1` [Compound 4], the CC50 in the data set “in vitro” and in the data set with BC-3 PEL cell line [3] was greater than 100 µM in each case.

On to `c1ccc2c(c1)Nc1ccccc1S2` [Compound 3], for which the CC50 came to 63 µM in the data set “in vitro” and 62.7 µM with BC-3 PEL cell line [3].

For `CC(C)NCCCn1c(Sc2cc3c(cc2I)OCO3)nc2c(N)ncnc21` [PU-H71], in data set [4], the “disruption of vFLIP/NEMO complex (NEMO pulled down by FLAG beads)” value was “disrupted the complex and destabilized both vFLIP and NEMO”. The CC50 is 63.4 nM in the data set with BC-3 PEL cell line [5]; 217 nM with BCBL-1 PEL cell line; 36.9 nM in the data set with BC-1 PEL cell line; 27.1 nM in the data set on BC-2 PEL cell line; 337 nM in data set [7]. Besides, in data set [6], the “sensitivity of PEL cell lines” value is on record as “showed sensitivity”. For the same compound, in data set [8], the “sensitivity of vFLIP-negative Namalwa cells” value is “showed sensitivity”.
